According to PubChem BioAssay AID1963974 (Molecular Pharmacology Branch, DTP, NCI, 2024):

Tested on: 648629-189-R-J1-PDC spheroids with HUVEC/MSC, viability
Test: Anticancer human tumor 648629-189-R-J1-PDC patient-derived bladder carcinoma cell line growth inhibition [PI3K]
Details: for IC50: curve of first compound; for viability, T/C: stronger effect = lower value
Source text: Combinatorial screen of targeted agents with the PI3K inhibitors inavolisib, alpelisib, duvelisib, and copanlisib in multi-cell type tumor spheroids
A high-throughput screen of multi-cell type tumor spheroids was designed to identify active combinations of targeted small molecules and PI3K pathway inhibitors. Complex spheroids include a stromal component modeled by human endothelial cells (HUVEC) and fibroblasts modeled by human mesenchymal stem cells (MSCs). The concentration ranges selected for each drug and investigational agent were based upon clinically achievable concentrations if the clinical Cmax of the agent was known.
Compounds. The drugs and investigational agents: inavolisib (NSC800729), alpelisib (NSC765974), duvelisib (NSC772469), copanlisib (NSC816437), ipatasertib (NSC767898), afuresertib (NSC778305), talazoparib (NSC767125), sapanisertib (NSC764658), selumetinib (NSC741078), tovorafenib (DAY101, NSC766906), vemurafenib (NSC761431), ravoxertinib (NSC781343), sotorasib (NSC818433), MRTX1133 (NSC 836407), abemaciclib (NSC 768073), palbociclib (NSC758247), venetoclax (NSC 766270), SY5609 (NSC837396), enzalutamide (NSC755605), and darolutamide (NSC825331), were obtained from the National Cancer Institute (NCI) Developmental Therapeutics Program Chemical Repository. The FDA-approved anticancer drug set is available from the NCI Developmental Therapeutics Program. […] The stock solutions were prepared in dimethyl sulfoxide (DMSO, Sigma-Aldrich, St. Louis, MO, cat. D2650) at 800-fold the tested concentration and stored at -70 degrees C prior to their use. All drugs and investigational agents were tested over a range starting from a high concentration at or near the clinical Cmax and decreasing in half-log increments. If the clinical Cmax for an agent had not been determined, the highest concentration tested was 10 microM.
Cell Culture. All cells were maintained in an incubator at 37 degrees C and 5% CO2 with 95% humidity. The PDC lines were cultured according to standard operating procedures established by the NCI PDMR (https://pdmr.cancer.gov/sops/default.htm). All PDCs were thawed and cultured in Matrigel-coated flasks prepared with a working solution of 1X Ham's F-12 nutrient mix, without supplementation (Invitrogen, Waltham, MA, cat. 11765054), 100 U/mL penicillin-streptomycin (Invitrogen, cat. 15140122), and 2.5% Matrigel (Corning Inc., Corning, NY, cat. 354248) for the first three passages. The 354836-022-R-J1-PDC, 475296-252-R-J1-PDC, and 997726-040-R-J2-PDC lines were cultured in 6A media, which includes advanced DMEM/F-12 (Thermo Fisher Scientific, cat. 12634028), 10 mM HEPES (Thermo Fisher Scientific, cat. 15630080), 1X GlutaMAX supplement (Thermo Fisher Scientific, cat. 35050061), 0.1 mg/mL primocin (InvivoGen, San Diego, CA, cat. ant-pm-2), 10% defined fetal bovine serum, heat inactivated (HyClone Laboratories Inc., Logan, UT, cat. SH30070.03HI), 50% L-WRN conditioned media (ATCC, cat. CRL-3276), 1.25 mM N-Acetyl-L-cysteine (Sigma-Aldrich, cat. A9165), 10 mM nicotinamide (Sigma-Aldrich, cat. N0636), 1X B-27 supplement (Thermo Fisher Scientific, cat. 17504044), 1X N-2 supplement (Thermo Fisher Scientific, cat. 17502048), and 10 microM Y-27632 dihydrochloride (Tocris Bioscience, Bristol, United Kingdom, cat. 1254). The 624824-186-R-J2-PDC line was cultured in 6C/Colon 1B media, which includes all 6A media components plus 50 ng/mL human EGF recombinant protein (Thermo Fisher Scientific, cat. PHG0311). […]

[1] = second compound 0.00316 µM, first compound 0.0316 µM
[2] = second compound 0.00316 µM, first compound 0.1 µM
[3] = second compound 0.00316 µM, first compound 0.316 µM
[4] = second compound 0.00316 µM, first compound 1 µM
[5] = second compound 0.00316 µM, first compound 3.16 µM
[6] = second compound 0.00316 µM, first compound 10 µM
[7] = second compound 0.01 µM, first compound 0.0316 µM
[8] = second compound 0.01 µM, first compound 0.1 µM
[9] = second compound 0.01 µM, first compound 0.316 µM
[10] = second compound 0.01 µM, first compound 1 µM
[11] = second compound 0.01 µM, first compound 3.16 µM
[12] = second compound 0.01 µM, first compound 10 µM
[13] = second compound 0.0316 µM, first compound 0.0316 µM
[14] = second compound 0.0316 µM, first compound 0.1 µM
[15] = second compound 0.0316 µM, first compound 0.316 µM
[16] = second compound 0.0316 µM, first compound 1 µM
[17] = second compound 0.0316 µM, first compound 3.16 µM
[18] = second compound 0.0316 µM, first compound 10 µM
[19] = second compound 0.1 µM, first compound 0.0316 µM
[20] = second compound 0.1 µM, first compound 0.1 µM
[21] = second compound 0.1 µM, first compound 0.316 µM
[22] = second compound 0.1 µM, first compound 1 µM
[23] = second compound 0.1 µM, first compound 3.16 µM
[24] = second compound 0.1 µM, first compound 10 µM
[25] = second compound 0.316 µM, first compound 0.0316 µM
[26] = second compound 0.316 µM, first compound 0.1 µM
[27] = second compound 0.316 µM, first compound 0.316 µM
[28] = second compound 0.316 µM, first compound 1 µM
[29] = second compound 0.316 µM, first compound 3.16 µM
[30] = second compound 0.316 µM, first compound 10 µM
[31] = second compound 1 µM, first compound 0.0316 µM
[32] = second compound 1 µM, first compound 0.1 µM
[33] = second compound 1 µM, first compound 0.316 µM
[34] = second compound 1 µM, first compound 1 µM
[35] = second compound 1 µM, first compound 3.16 µM
[36] = second compound 1 µM, first compound 10 µM
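Note: spheroids exposed to agents for seven days before reading.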
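Throughout, for viability, T/C: percent of vehicle control luminescence where 100% = DMSO treated spheroids.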

Molecule `C=CC(=O)N1CCN(c2nc(=O)n(-c3c(C)ccnc3C(C)C)c3nc(-c4c(O)cccc4F)c(F)cc23)C(C)C1` (stereo unspecified) + COc1c(OCCCN2CCOCC2)ccc2c3n(c(=NC(=O)c4cnc(N)nc4)nc12)CCN3 has an IC50 (second compound 0.00316 µM) of over 10000 nM, an IC50 (second compound 0.01 µM) of over 10000 nM and an IC50 (second compound 0.0316 µM) of over 10000 nM. For the same molecule, the IC50 (second compound 0.1 µM) was over 10000 nM, the IC50 (second compound 0.316 µM) was under 31.6 nM and the IC50 (second compound 1 µM) was under 31.6 nM. For the same molecule, the viability, T/C [1] was 114%, the viability, T/C [2] was 108% and the viability, T/C [3] was 114%. For the same molecule, the viability, T/C [4] was 108%, the viability, T/C [5] was 119% and the viability, T/C [6] was 99.9%. For the same molecule, the viability, T/C [7] was 94.3%, the viability, T/C [8] was 91.3% and the viability, T/C [9] was 101%. The viability, T/C [10] was 113%, the viability, T/C [11] was 115% and the viability, T/C [12] was 79.1%. For the same molecule, the viability, T/C [13] was 83.4%, the viability, T/C [14] was 81.9% and the viability, T/C [15] was 104%. For the same molecule, the viability, T/C [16] was 94.6%, the viability, T/C [17] was 107% and the viability, T/C [18] was 87.8%. For the same molecule, the viability, T/C [19] was 57.3%, the viability, T/C [20] was 64.5% and the viability, T/C [21] was 63.5%. It also gave a viability, T/C [22] of 79.1%, a viability, T/C [23] of 81.3% and a viability, T/C [24] of 77.2%. It also gave a viability, T/C [25] of 18.8%, a viability, T/C [26] of 22.1% and a viability, T/C [27] of 29%. For the same molecule, the viability, T/C [28] was 25.5%, the viability, T/C [29] was 38% and the viability, T/C [30] was 35.3%. For the same molecule, the viability, T/C [31] was 3.7%, the viability, T/C [32] was 4.13% and the viability, T/C [33] was 4.67%. The viability, T/C [34] was 6.38%, the viability, T/C [35] was 7.09% and the viability, T/C [36] was 8.01%.
`C[C@@H](NC(=O)c1ncnc(N)c1Cl)c1ncc(C(=O)Nc2cc(C(F)(F)F)c(Cl)cn2)s1` + CC(Nc1ccc2c(c1)OCCn1cc(N3C(=O)OCC3C(F)F)nc1-2)C(N)=O was tested, and the IC50 (second compound 0.00316 µM) was over 10000 nM, the IC50 (second compound 0.01 µM) was over 10000 nM and the IC50 (second compound 0.0316 µM) was over 10000 nM. The IC50 (second compound 0.1 µM) was over 10000 nM, the IC50 (second compound 0.316 µM) was over 10000 nM and the IC50 (second compound 1 µM) was over 10000 nM. It also gave a viability, T/C [1] of 106%, a viability, T/C [2] of 99.1% and a viability, T/C [3] of 112%. It also gave a viability, T/C [4] of 115%, a viability, T/C [5] of 108% and a viability, T/C [6] of 116%. It also gave a viability, T/C [7] of 111%, a viability, T/C [8] of 98.8% and a viability, T/C [9] of 115%. The viability, T/C [10] was 99.3%, the viability, T/C [11] was 112% and the viability, T/C [12] was 101%. For the same molecule, the viability, T/C [13] was 109%, the viability, T/C [14] was 105% and the viability, T/C [15] was 97.4%. It also gave a viability, T/C [16] of 102%, a viability, T/C [17] of 106% and a viability, T/C [18] of 106%. The viability, T/C [19] was 103%, the viability, T/C [20] was 97.8% and the viability, T/C [21] was 105%. It also gave a viability, T/C [22] of 110%, a viability, T/C [23] of 98.3% and a viability, T/C [24] of 97.8%. The viability, T/C [25] was 94.8%, the viability, T/C [26] was 93.9% and the viability, T/C [27] was 83.7%. The viability, T/C [28] was 86.2%, the viability, T/C [29] was 96.2% and the viability, T/C [30] was 86.4%. It also gave a viability, T/C [31] of 76.2%, a viability, T/C [32] of 74.2% and a viability, T/C [33] of 69.3%. The viability, T/C [34] was 77.2%, the viability, T/C [35] was 78% and the viability, T/C [36] was 65.5%.
`CC(C)NCC(C(=O)N1CCN(c2ncnc3c2C(C)CC3O)CC1)c1ccc(Cl)cc1` (stereo unspecified) + COc1c(OCCCN2CCOCC2)ccc2c3n(c(=NC(=O)c4cnc(N)nc4)nc12)CCN3 was tested, and the IC50 (second compound 0.00316 µM) was 901 nM, the IC50 (second compound 0.01 µM) was 1030 nM and the IC50 (second compound 0.0316 µM) was 698 nM. The IC50 (second compound 0.1 µM) was 144 nM, the IC50 (second compound 0.316 µM) was under 31.6 nM and the IC50 (second compound 1 µM) was under 31.6 nM. For the same molecule, the viability, T/C [1] was 90.2%, the viability, T/C [2] was 91.7% and the viability, T/C [3] was 79%. It also gave a viability, T/C [4] of 45.4%, a viability, T/C [5] of 26.1% and a viability, T/C [6] of 14.3%. The viability, T/C [7] was 102%, the viability, T/C [8] was 73.5% and the viability, T/C [9] was 75.1%. The viability, T/C [10] was 54%, the viability, T/C [11] was 26.2% and the viability, T/C [12] was 13.3%. For the same molecule, the viability, T/C [13] was 77.7%, the viability, T/C [14] was 77.6% and the viability, T/C [15] was 67.1%. For the same molecule, the viability, T/C [16] was 40.5%, the viability, T/C [17] was 24.6% and the viability, T/C [18] was 11.6%. The viability, T/C [19] was 60.1%, the viability, T/C [20] was 51.3% and the viability, T/C [21] was 45%. It also gave a viability, T/C [22] of 27%, a viability, T/C [23] of 16.9% and a viability, T/C [24] of 8.23%. For the same molecule, the viability, T/C [25] was 19.3%, the viability, T/C [26] was 18.4% and the viability, T/C [27] was 14.6%. For the same molecule, the viability, T/C [28] was 12%, the viability, T/C [29] was 7.28% and the viability, T/C [30] was 2.74%. It also gave a viability, T/C [31] of 2.91%, a viability, T/C [32] of 2.63% and a viability, T/C [33] of 3.85%. The viability, T/C [34] was 3%, the viability, T/C [35] was 2.11% and the viability, T/C [36] was 0.84%.
